Assay results taken from patent publication US8216580B2, “Sulfatases and methods of use thereof” (The Regents of the University of California, priority 2000, dated 2012).

Columns and labels:
[1] = Endo-glucosamine-6-sulfatase assay against intact heparin (heparinase digestion, disaccharide HPLC); assay type: biochemical, porcine; conditions: for Endo-glucosamine-6-sulfatase activity: 10 μg heparin, pH 7.5, 37° C., 8 hr, means±S.D., three reactions
Method: The procedures of Yoshida et al ((1989) Anal. Biochem. 177:327-332) were adapted for these assays. CM from transfected CHO cells (wild-type Sulfs, vector control or the double cysteine mutants) was prepared as described above. The standard reaction mixture contained 5 μmol of Tris-HCl, pH 7.5, 1 μmol of MgCl2, 10 μg of porcine intestinal heparin (Sigma, St. Louis, Mo.) and 20 μl of the 100-fold concentrated CM in a total volume of 100 μl. After incubation at 37° C. for 8 hr, the reaction was stopped by heating at 100° C. for 2 min. A mixture of 1 milliunit of Heparinase I (EC 4.2.2.7, Sigma), 0.25 milliunits of Heparinase II (Sigma) and 0.1 milliunits of Heparinase III (EC 4.2.2.8, Sigma) in 1.5 μl of 50 mM Tris-HCl, pH 7.5, was added to the reaction mixture and incubated at 37° C. for 3 hr. The digestion was stopped by heating at 100° C. for 2 min, and the mixture was filtered by centrifugation in an Ultrafree-MC filter (Millipore).
The disaccharides of the digested heparin were then analyzed by HPLC on a Partisil-10 SAX column (Whatman, Fairfield, N.J.) run at 41° C. Disaccharides were eluted from the column by increasing the ionic strength as follows: time 0-5 min, 12 mM KH2PO4; time 5-40 minutes, gradient from 12 mM to 600 mM; time 40-45 min, 600 mM. Absorbance at 232 nm was monitored and components were identified by comparison with authentic unsaturated disaccharide markers from Sigma, i.e. ΔDiHS-0S, ΔDiHS-6S, ΔDiHS-NS, ΔDiHS-(N,6)diS, ΔDiHS-(N,2)diS and ΔDiHS-(N,6,2)triS. The endo-glucosanine-6-sulfatase activities of human Sulf-1 and Sulf-2 against heparin proceeded linearly up to 10 hr under these conditions. In other assays, 10 μg of chondroitin 6-sulfate was employed as a substrate in the standard assay. After incubation with CM, 15 milliunits of Chondroitinase ABC (EC 4.2.2.4, Sigma) was used to fragment the chondroitin sulfate. The standards used were as follows: ΔDi-0S, ΔDi-6S, ΔDi-4S, ΔDi-diSD(2,6) and ΔDi-diSE(4,6). All were from Oxford GlycoSystems Inc.
Intact heparin (10 μg) was treated with conditioned medium from Sulf transfected CHO cells. To analyze activity on specific sulfation modifications, we digested the treated heparin with a mixture of bacterial heparinases and analyzed the disaccharide products by HPLC using standards (Yoshida, supra). Both HSulf-1 CM and Hsulf-2 CM produced an ≈80% reduction in the amount of trisulfated units ([…]) corresponding to IdoA2S-GlcNS6S and a parallel increase in that of disulfated units (ΔDiHS-(N,2)diS) corresponding to IdoA2S-GlcNS (FIG. 16A-C). There were no effects on the disulfated units ΔDiHS-(N,6)diS, monosulfated or non-sulfated units. Specific activities were calculated based on the volume of CM (Table 3). The endosulfatase activities of Sulf-1 and Sulf-2 CM were increased 9-fold and 10-fold respectively relative to CM from mock transfected cells (Table 3). […] Further selectivity of the endosulfatase activity was indicated when we employed chondroitin 6-sulfate as a substrate. […] Thus the Sulfs are active against intact heparin.
Endo-glucosamine-6-sulfatase activity was measured against intact heparin as described in above using CM derived from CHO cells transfected with the indicated vectors. HSulf-1 ΔCC and HSulf-2 ΔCC denote the CC87, 88AA and CC88, 89AA mutants, respectively. Endosulfatase activity was defined by calculating the moles of unsaturated trisulfated disaccharides from which the sulfate group on C-6 position was liberated in the standard assay (FIGS. 16A-F) by the Sulfs as compared to levels in untreated control samples. Values shown are means±S.D. based on three independent reactions.

[2] = system: Wnt signaling; assay: TCF-luciferase (TOPFlash/FOPFlash) Wnt reporter assay in pancreatic adenocarcinoma cell lines; assay type: cell-based, human; conditions: for Wnt activity: 16 hours with conditioned medium of HEK 293 clones
Method: Cells were plated in 24 well plates and transfected with either 0.3 μg TOPFlash or FOPFlash and 0.01 μg Renilla control plasmid (Promega) using Fugene (Roche) according to the manufacturer's procedure. After 48 hours cells were lysed and analyzed utilizing the Dual Luciferase Reporter Assay system (Promega). Luciferase activity was normalized to control Renilla activity.
To search for evidence that endogenous expressed sulfatases in pancreatic adenocarcinoma cell lines regulate Wnt signaling, the method of gene silencing was used. An antisense cDNA against both sulfatases was transiently transfected into four different cell lines. As a control, cells were transfected with a MMP-9 antisense cDNA. Wnt signaling was quantified by TCF-luciferase activity.
HSulf-1 DCC and HSulf-2 DCC mutants are as follows: 1) cysteines 87 and 88 of HSulf-1 (designated as HSulf-1 ΔCC or HSulf-1 DCC) were changed to alanines; and cysteines 88 and 89 of HSulf-2 (designated as HSulf-2 ΔCC or HSulf-2 DCC) were changed to alanines (see Example 9, above).
The effect of conditioned medium derived from the HEK 293 cell lines on Wnt signaling was determined. Pancreatic adenocarcinoma cells were incubated for 16 hours with conditioned medium derived from the described HEK 293 clones; and the TOP/FOPflash system was used to quantify Wnt signaling.
In order to compare proliferation of BxPC3 sil413 cells and mock transfected BxPC3 cells in vitro, GFP+ (HSulf-2 positive) and GFP− (HSulf-2 negative) cells were co-cultured; and the ratio of GFP+ to GFP− cells was followed over time. […] Additionally, using sorted BxPC3 si1413 cells we examined proliferation performing BrdU incorporation experiments (FIG. 21D).

[3] = system: pancreatic adenocarcinoma cell lines; assay: Transwell co-culture proliferation (cell counts) with HEK 293 feeder layer; assay type: cell-based, human; conditions: exogenous protein from 293 feeder layer
Method: Co-culture experiments were performed in transwell plates with 24-well inserts with 5 μm polycarbonate membrane pore size (Corning Incorporated). HEK 293 cells were plated in the wells as feeder layer and one day later 1-2×10^3 cells of the pancreatic adenocarcinoma cell lines were plated in the inserts. Cells were grown in DMEM supplemented with 10% fetal calf serum.
293 cells expressing either HSulf-2, HSulf-2-DCC, parental 293 or only medium alone were used as feeder layer; and pancreatic adenocarcinoma lines were grown on transwell filters. Subsequently, cell counts were followed over time.

[4] = CM from transfected CHO cells, intact heparin 10 μg

Row | Substance | Endo-glucosamine-6-sulfatase activity ([1]; CM from transfected CHO cells) | Wnt activity ([2]; CFPAC-1 cells) | Wnt activity ([2]; cell lines inhibited in proliferation) | inhibition of Wnt signaling (TCF-luciferase activity) ([2]; transient transfection, in three of the four examined pancreatic adenocarcinoma cell lines) | proliferation (cell counts over time) ([3]; BxPC-3, HS766T and L3.6sl cells) | proliferation (cell counts over time) ([3]; CFPAC-1 cells) | effects on the disulfated units ΔDiHS-(N,6)diS, monosulfated or non-sulfated units [1, 4] | reduction in the amount of trisulfated units ([…]) corresponding to IdoA2S-GlcNS6S [1, 4] | endosulfatase activity increase relative to CM from mock transfected cells ([1]; based on Table 3) | removal of sulfate from the 6-position of glucosamine within the tri-sulfated units ([1]; intact heparin, neutral pH)
1 | HSulf-2 ΔCC: catalytically inactive HSulf-2, cysteines 88 and 89 mutated to alanines (CC88, 89AA) | 5.6 ± 0.6 pmol/hr/ml of medium | did no respond | significant decrease | about 50% | inhibited | did not show any response |  |  |  | 
2 | HSulf-2: Human SULF2, an 870 amino acid sulfatase protein, SEQ ID NO:06; expressed with C-terminal Myc-His tag | 96.6 ± 0.5 pmol/hr/ml of medium |  |  |  |  |  | no effects | ≈ 80% | 10 fold | 80%
